Results reported in patent US10125135B2, “Chemical compounds” (AstraZeneca AB, priority 2016, dated 2018).

Biological target: ERα receptor in MCF-7 human ductal carcinoma breast cell line (Homo sapiens (Human), UniProt P03372)
Experiment: MCF-7 ER down regulation assay (immuno-fluorescence)
Assay type: cell-based
Details: MCF-7 cells; for DC50: 18-22 hours incubation, read-out: ER down regulation IC50 value; for % downregulation (in brackets) in ER down regulation assay: >90% unless otherwise stated
Description: MCF-7 ER Down Regulation Assay
The ability of compounds to down-regulate Estrogen Receptor (ER) numbers was assessed in a cell based immuno-fluorescence assay using the MCF-7 human ductal carcinoma breast cell line. MCF-7 cells were revived directly from a cryovial (approx 5×10^6 cells) in Assay Medium (phenol red free Dulbecco's Modified Eagle's medium (DMEM) (Sigma D5921) containing 2mM L-Glutamine and 5% (v/v) Charcoal/Dextran treated foetal calf serum. Cells were syringed once using a sterile 18 G×1.5 inch (1.2×40 mm) broad gauge needle and cell density was measured using a Coulter Counter (Beckman). Cells were further diluted in Assay Medium to a density of 3.75×10^4 cells per mL and 40 μL per well added to transparent bottomed, black, tissue culture treated 384 well plates (Costar, No. 3712) using a Thermo Scientific Matrix WellMate or Thermo Multidrop. Following cell seeding, plates were incubated overnight at 37° C., 5% CO2 (Liconic carousel incubator). Test data was generated using the LabCyte Echo™ model 555 compound reformatter which is part of an automated workcell (Integrated Echo 2 workcell). 10 mM compound stock solutions of the test compounds were used to generate a 384 well compound dosing plate (Labcyte P-05525-CV1). […] 40 μΛ of DMSO added to wells in row P on the source plate allow for DMSO normalisation across the dose range. To dose the control wells 40 μL of DMSO was added to row O1 and 40 μL of 100 μM fulvestrant in DMSO was added to row O3 on the compound source plate. […] Compounds were dispensed onto the cell plates with a compound source plate prepared as above producing a 12 pt duplicate 3 μM to 3 pM dose range with 3 fold dilutions and one final 10 fold dilution using the Integrated Echo 2 workcell. […] Cells were fixed at room temperature for 20 mins before being washed two times with 250 μL PBS/Proclin (PBS with a Biocide preservative) using a BioTek platewasher, 40 μL of PBS/Proclin was then added to all wells and the plates stored at 4° C. The fixing method described above was carried out on the Integrated Echo 2 workcell. Immunostaining was performed using an automated AutoElisa workcell. The PBS/Proclin was aspirated from all wells and the cells permeabilised with 40 μL PBS containing 0.5% Tween™ 20 (v/v) for 1 hour at room temperature. The plates were washed three times in 250 μL of PBS/0.05% (v/v) Tween 20 with Proclin (PBST with a Biocide preservative) and then 20 μL of ERα (SP1) Rabbit monoclonal antibody (Thermofisher) 1:1000 in PBS/Tween™/3% (w/v) Bovine Serum Albumin was added. The plates were incubated overnight at 4° C. (Liconic carousel incubator) and then washed three times in 250 μL of PBS/0.05% (v/v) Tween™ 20 with Proclin (PBST). The plates were then incubated with 20 μL/well of a goat anti-rabbit IgG AlexaFluor 594 or goat anti-rabbit AlexaFluor 488 antibody (Molecular Probes) with Hoechst at 1:5000 in PBS/Tween™/3% (w/v) Bovine Serum Albumin for lhour at room temperature. The plates were then washed three times in 250 μL of PBS/0.05% (v/v) Tween™ 20 with Proclin (PBST with a Biocide preservative). 20 μL of PBS was added to each well and the plates covered with a black plate seal and stored at 4° C. before being read. Plates were read using a Cellomics Arrayscan reading the 594 nm (24 hr time point) or 488 nm (5 hr timepoint) fluorescence to measure the ERα receptor level in each well. The mean total intensity was normalized for cell number giving the total intensity per cell.

ERα receptor in MCF-7 human ductal carcinoma breast cell line, sequence (P03372 whole entry): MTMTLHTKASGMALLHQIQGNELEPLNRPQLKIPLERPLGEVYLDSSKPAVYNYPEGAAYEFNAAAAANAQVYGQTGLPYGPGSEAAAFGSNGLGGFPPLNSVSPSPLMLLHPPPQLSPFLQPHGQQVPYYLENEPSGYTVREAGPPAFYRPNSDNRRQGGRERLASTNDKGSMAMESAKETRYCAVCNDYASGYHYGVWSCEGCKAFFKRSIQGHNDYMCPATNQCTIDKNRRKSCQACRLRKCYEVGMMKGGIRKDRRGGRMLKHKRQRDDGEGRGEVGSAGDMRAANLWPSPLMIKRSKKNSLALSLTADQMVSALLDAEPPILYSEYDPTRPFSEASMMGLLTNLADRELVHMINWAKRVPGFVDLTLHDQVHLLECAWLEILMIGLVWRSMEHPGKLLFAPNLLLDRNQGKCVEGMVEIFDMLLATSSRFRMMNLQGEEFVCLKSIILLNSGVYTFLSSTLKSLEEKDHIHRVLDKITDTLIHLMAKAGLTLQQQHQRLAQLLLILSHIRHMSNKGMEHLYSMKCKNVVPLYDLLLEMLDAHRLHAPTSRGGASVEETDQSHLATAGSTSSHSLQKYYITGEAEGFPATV

| SMILES | DC50 [pM] | % downregulation (in brackets) in ER down regulation assay [%] |
| --- | --- | --- |
| COc1cc(OCCN2CC(CF)C2)ccc1[C@@H]1c2ccc3[nH]ncc3c2C[C@@H](C)N1CC1(F)COC1 [Example 13, (6S,8R)-6-(4-(2-(3-(fluoromethyl)azetidin-1-yl)ethoxy)-2-methoxyphenyl)-7-((3-fluorooxetan-3-yl)methyl)-8-methyl-6,7,8,9-tetrahydro-3H-pyrazolo[4,3-f]isoquinoline] | 230 |  |
| COc1cc(OCCN2CC(C)C2)ccc1[C@@H]1c2ccc3[nH]ncc3c2C[C@@H](C)N1CC(C)(C)F [Example 23, (6S,8R)-7-(2-fluoro-2-methylpropyl)-6-(2-methoxy-4-(2-(3-methylazetidin-1-yl)ethoxy)phenyl)-8-methyl-6,7,8,9-tetrahydro-3H-pyrazolo[4,3-f]isoquinoline] | 240 | 67 |
| COc1nc(OCCN2CC(CF)C2)ccc1[C@@H]1c2ccc3[nH]ncc3c2C[C@@H](C)N1CC1(F)CC1 [Example 46, (6S,8R)-7-((1-fluorocyclopropyl)methyl)-6-(6-(2-(3-(fluoromethyl)azetidin-1-yl)ethoxy)-2-methoxypyridin-3-yl)-8-methyl-6,7,8,9-tetrahydro-3H-pyrazolo[4,3-f]isoquinoline] | 140 |  |
| CC1(C)Cc2c(ccc3[nH]ncc23)C(c2ccc(OCCN3CC(CF)C3)cn2)N1CC(F)F (centres unmarked) [Example 45, 7-(2,2-difluoroethyl)-6-(5-(2-(3-(fluoromethyl)azetidin-1-yl)ethoxy)pyridin-2-yl)-8,8-dimethyl-6,7,8,9-tetrahydro-3H-pyrazolo[4,3-f]isoquinoline] | 3100 |  |
| COc1cc(OCCN2CC(CF)C2)cc(F)c1[C@@H]1c2ccc3[nH]ncc3c2C[C@@H](C)N1CC(C)(F)F [Example 25, (6S,8R)-7-(2,2-difluoropropyl)-6-(2-fluoro-4-(2-(3-(fluoromethyl)azetidin-1-yl)ethoxy)-6-methoxyphenyl)-8-methyl-6,7,8,9-tetrahydro-3H-pyrazolo[4,3-f]isoquinoline] | 110 |  |
| COc1cc(OCCN2CC(CF)C2)ccc1[C@@H]1c2ccc3[nH]ncc3c2C[C@@H](C)N1CC(F)(F)F [Example 12, (6S,8R)-6-(4-(2-(3-(fluoromethyl)azetidin-1-yl)ethoxy)-2-methoxyphenyl)-8-methyl-7-(2,2,2-trifluoroethyl)-6,7,8,9-tetrahydro-3H-pyrazolo[4,3-f]isoquinoline] | 51 |  |
| C[C@@H]1Cc2c(ccc3[nH]ncc23)[C@@H](c2ncc(OCCN3CC(CF)C3)cc2F)N1CC(F)F [Example 48, (6S,8R)-7-(2,2-difluoroethyl)-6-(3-fluoro-5-(2-(3-(fluoromethyl)azetidin-1-yl)ethoxy)pyridin-2-yl)-8-methyl-6,7,8,9-tetrahydro-3H-pyrazolo[4,3-f]isoquinoline] | 1900 |  |
| C[C@@H]1Cc2c(ccc3[nH]ncc23)[C@@H](c2ccc(OCCN3CC(CF)C3)cc2C#N)N1CC1(F)CC1 [Example 39, 2-((6S,8R)-7-((1-fluorocyclopropyl)methyl)-8-methyl-6,7,8,9-tetrahydro-3H-pyrazolo[4,3-f]isoquinolin-6-yl)-5-(2-(3-(fluoromethyl)azetidin-1-yl)ethoxy)benzonitrile] | 170 |  |
| C[C@@H]1Cc2c(ccc3[nH]nc(F)c23)[C@@H](c2c(F)cc(OCCN3CC(CF)C3)cc2F)N1CC1(F)COC1 [Example 43, (6S,8R)-6-(2,6-difluoro-4-(2-(3-(fluoromethyl)azetidin-1-yl)ethoxy)phenyl)-1-fluoro-7-((3-fluorooxetan-3-yl)methyl)-8-methyl-6,7,8,9-tetrahydro-3H-pyrazolo[4,3-f]isoquinoline] | 590 |  |
| CC(C)CN1[C@H](c2c(F)cc(OCCN3CC(CF)C3)cc2F)c2ccc3[nH]nc(F)c3c2C[C@H]1C [Example 44, (6S,8R)-6-(2,6-difluoro-4-(2-(3-(fluoromethyl)azetidin-1-yl)ethoxy)phenyl)-1-fluoro-7-isobutyl-8-methyl-6,7,8,9-tetrahydro-3H-pyrazolo[4,3-f]isoquinoline] | 420 |  |
| COc1cc(OCCN2CC(CF)C2)ccc1[C@@H]1c2ccc3[nH]ncc3c2C[C@@H](C)N1CC(C)(F)CF (single isomer, unassigned) [Example 20] | 130 |  |
| CC(C)CN1C(c2c(F)cc(OCCN3CC(CF)C3)cc2F)c2ccc3[nH]ncc3c2CC1(C)C (centres unmarked) [Example 36, 6-(2,6-difluoro-4-(2-(3-(fluoromethyl)azetidin-1-yl)ethoxy)phenyl)-7-isobutyl-8,8-dimethyl-6,7,8,9-tetrahydro-3H-pyrazolo[4,3-f]isoquinoline] | 250 |  |
| COCC(C)(F)CN1[C@H](c2ccc(OCCN3CC(CF)C3)cc2OC)c2ccc3[nH]ncc3c2C[C@H]1C (single isomer, unassigned) [Example 16] | 440 | 56 |
| COc1cc(OCCN2CC(OC)C2)ccc1[C@@H]1c2ccc3[nH]ncc3c2C[C@@H](C)N1CC(C)(C)F [Example 24, (6S,8R)-7-(2-fluoro-2-methylpropyl)-6-(2-methoxy-4-(2-(3-methoxyazetidin-1-yl)ethoxy)phenyl)-8-methyl-6,7,8,9-tetrahydro-3H-pyrazolo[4,3-f]isoquinoline] |  | <50 |
| COc1cc(OCCN2CC(CF)C2)ccc1[C@@H]1c2ccc3[nH]ncc3c2C[C@@H](C)N1CC(F)(F)CF [Example 22, (6S,8R)-6-(4-(2-(3-(fluoromethyl)azetidin-1-yl)ethoxy)-2-methoxyphenyl)-8-methyl-7-(2,2,3-trifluoropropyl)-6,7,8,9-tetrahydro-3H-pyrazolo[4,3-f]isoquinoline] | 150 |  |
| COc1cc(OCCN2CC(CF)C2)ccc1[C@@H]1c2ccc3[nH]ncc3c2C[C@@H](C)N1CC(C)(F)F [Example 11, (6S,8R)-7-(2,2-difluoropropyl)-6-(4-(2-(3-(fluoromethyl)azetidin-1-yl)ethoxy)-2-methoxyphenyl)-8-methyl-6,7,8,9-tetrahydro-3H-pyrazolo[4,3-f]isoquinoline] | 36 |  |
| COCC(C)(F)CN1[C@H](c2ccc(OCCN3CC(CF)C3)cc2OC)c2ccc3[nH]ncc3c2C[C@H]1C (single isomer, unassigned) [Example 17] | 240 |  |
| C[C@@H]1Cc2c(ccc3[nH]ncc23)[C@@H](c2c(F)cc(OCCN3CC(CF)C3)cc2F)N1CC(F)CF (single isomer, unassigned) [Example 34] | 280 |  |
| COc1cc(OCCN2CC(CF)C2)cc(F)c1[C@@H]1c2ccc3[nH]ncc3c2C[C@@H](C)N1CC(F)(F)CO [Example 26, 2,2-difluoro-3-((6S,8R)-6-(2-fluoro-4-(2-(3-(fluoromethyl)azetidin-1-yl)ethoxy)-6-methoxyphenyl)-8-methyl-8,9-dihydro-3H-pyrazolo[4,3-f]isoquinolin-7(6H)-yl)propan-1-ol] | 130 |  |
| COc1cc(OCCN2CC(CF)C2)cc(F)c1[C@@H]1c2ccc3[nH]ncc3c2C[C@@H](C)N1CC(F)(F)CF [Example 27, (6S,8R)-6-(2-fluoro-4-(2-(3-(fluoromethyl)azetidin-1-yl)ethoxy)-6-methoxyphenyl)-8-methyl-7-(2,2,3-trifluoropropyl)-6,7,8,9-tetrahydro-3H-pyrazolo[4,3-f]isoquinoline] | 59 |  |
| COc1cc(OCCN2CC(CF)C2)ccc1[C@@H]1c2ccc3[nH]ncc3c2C[C@@H](C)N1CC(F)(F)CO [Example 14, 2,2-difluoro-3-((6S,8R)-6-(4-(2-(3-(fluoromethyl)azetidin-1-yl)ethoxy)-2-methoxyphenyl)-8-methyl-3,6,8,9-tetrahydro-7H-pyrazolo[4,3-f]isoquinolin-7-yl)propan-1-ol] | 150 |  |
